Assays:
[1] = tested on: S. aureus UBMS 88-5 (tetM); assay: MIC, agar dilution; type: cell-based; details: S. aureus UBMS 88-5 TetM; Table IA; unit assumed
[2] = tested on: S. aureus ATCC 29213 (Sensitive); assay: MIC, agar dilution; type: cell-based; details: S. aureus ATCC 29213; Table IA; unit assumed
[3] = tested on: S. aureus IVES 2943 (meth. resistant); assay: MIC, agar dilution; type: cell-based; details: S. aureus IVES 2943; Table IA; unit assumed
[4] = tested on: E. coli UBMS 89-2 (Sensitive); assay: MIC, agar dilution; type: cell-based; details: E. coli UBMS 89-2 Tet Sens.; Table IA; unit assumed
[5] = tested on: Wild Type S30 extract, E. coli strain MRE600 (tetracycline sensitive); assay: E. coli in vitro transcription and protein translation, 35S-methionine incorporation (Table VIII)
E. coli UBMS 89-1 (tetM) = assay: MIC, agar dilution; type: cell-based; details: E. coli UBMS 89-1 TetM; Table IA; unit assumed
E. coli J3272 TetD = assay: MIC, agar dilution (Table IA); type: cell-based; details: unit assumed
[6] = tested on: S. aureus UBMS 90-2 (tetM); assay: MIC, agar dilution; type: cell-based; details: S. aureus UBMS 90-2 TetM; Table IA; unit assumed
[7] = tested on: S. aureus UBMS 90-3 (Sensitive); assay: MIC, agar dilution; type: cell-based; details: S. aureus UBMS 90-3; Table IA; unit assumed
E. coli J3272 TetC = assay: MIC, agar dilution (Table IA); type: cell-based; details: unit assumed
[8] = tested on: TetM S30 extract, derivative of E. coli MRE600 containing the tetM determinant; assay: E. coli in vitro transcription and protein translation, 35S-methionine incorporation (Table VIII)
E. coli MC4100 TetB = assay: MIC, agar dilution (Table IA); type: cell-based; details: unit assumed
E. coli J3272 Tet sens. = assay: MIC, agar dilution (Table IA); type: cell-based; details: unit assumed
[9] = tested on: S. haemolyticus AVAH 88-3; assay: MIC, agar dilution; type: cell-based; details: S. hemolyticus AVHAH 88-3; Table IA; unit assumed
[10] = tested on: S. aureus UBMS 88-4 (Sensitive); assay: MIC, agar dilution; type: cell-based; details: S. aureus UBMS 88-4; Table IA; unit assumed
[11] = tested on: S. aureus Smith (Sensitive); assay: MIC, agar dilution; type: cell-based; details: S. aureus SMITH (MP); Table IA; unit assumed
E. faecalis 12201 = assay: MIC, agar dilution; type: cell-based; details: Enterococcus 12201; Table IA; unit assumed
E. coli UBMS 90-5 = assay: MIC, agar dilution (Table IA); type: cell-based; details: unit assumed
E. coli #311 (MP) = assay: MIC, agar dilution (Table IA); type: cell-based; details: unit assumed
[12] = tested on: S. aureus UBMS 88-7 (tetK); assay: MIC, agar dilution; type: cell-based; details: S. aureus UBMS 88-7 TetK; Table IA; unit assumed
E. faecalis ATCC 29212 = assay: MIC, agar dilution; type: cell-based; details: E. faecalis ATCC 29212; Table IA; unit assumed
S. aureus NEMC 8769/89-4 = assay: MIC, agar dilution (Table IA); type: cell-based; details: unit assumed
[13] = tested on: S. aureus IVES 1983 (meth. resistant); assay: MIC, agar dilution; type: cell-based; details: S. aureus IVES 1983; Table IA; unit assumed
E. coli J2175 = assay: MIC, agar dilution (Table IA); type: cell-based; details: unit assumed
S. mariescens FDOR 8733 = assay: MIC, agar dilution (Table IA); type: cell-based; details: unit assumed
[14] = tested on: X. maltophilia NEMC 87210; assay: MIC, agar dilution (Table IA); type: cell-based; details: unit assumed
E. coli BAJ9003 = assay: MIC, agar dilution (Table IA); type: cell-based; details: unit assumed
[15] = tested on: Ps. acruginosa ATCC 27853; assay: MIC, agar dilution (Table IA); type: cell-based; details: unit assumed
E. coli ATCC 25922 = assay: MIC, agar dilution; type: cell-based; details: E. coli ATCC 25922; Table IA; unit assumed
S. aureus ROSE (MP) = assay: MIC, agar dilution (Table IA); type: cell-based; details: unit assumed
[16] = tested on: S. aureus UBMS 90-1 (tetM); assay: MIC, agar dilution; type: cell-based; details: S. aureus UBMS 90-1 TetM; Table IA; unit assumed
E. coli PRP1 TetA = assay: MIC, agar dilution (Table IA); type: cell-based; details: unit assumed
E. coli UBMS 88-1 (tetB) = assay: MIC, agar dilution; type: cell-based; details: E. coli UBMS 88-1 TetB; Table IA; unit assumed
E. coli UBMS 90-4 (tetM) = assay: MIC, agar dilution; type: cell-based; details: E. coli UBMS 90-4 TetM; Table IA; unit assumed

| Compound | Antibacterial activity (MIC) [1] [µg/mL] | Antibacterial activity (MIC) [2] [µg/mL] | Antibacterial activity (MIC) [3] [µg/mL] | Antibacterial activity (MIC) [4] [µg/mL] | % INHIBITION Wild Type S30 ([5]; 0.06 mg/ml) [%] | % INHIBITION Wild Type S30 ([5]; 0.2 mg/ml) [%] | % INHIBITION Wild Type S30 ([5]; 1.0 mg/ml) [%] | Antibacterial activity (MIC) (E. coli UBMS 89-1 (tetM)) [µg/mL] | Antibacterial activity (MIC) (E. coli J3272 TetD) [µg/mL] | Antibacterial activity (MIC) [6] [µg/mL] | Antibacterial activity (MIC) [7] [µg/mL] | Antibacterial activity (MIC) (E. coli J3272 TetC) [µg/mL] | % INHIBITION TetM S30 ([8]; 0.06 mg/ml) [%] | % INHIBITION TetM S30 ([8]; 0.2 mg/ml) [%] | % INHIBITION TetM S30 ([8]; 1.0 mg/ml) [%] | Antibacterial activity (MIC) (E. coli MC4100 TetB) [µg/mL] | Antibacterial activity (MIC) (E. coli J3272 Tet sens.) [µg/mL] | Antibacterial activity (MIC) [9] [µg/mL] | Antibacterial activity (MIC) [10] [µg/mL] | Antibacterial activity (MIC) [11] [µg/mL] | other results |
| --- | --- | --- | --- | --- | --- | --- | --- | --- | --- | --- | --- | --- | --- | --- | --- | --- | --- | --- | --- | --- | --- |
| CNCC(=O)Nc1cc(N(C)C)c2c(c1O)C(=O)C1=C(O)[C@]3(O)C(=O)C(C(N)=O)=C(O)[C@@H](N(C)C)C3CC1C2.Cl.Cl (stereo partly drawn) [MM, [4S-(4alpha,12aalpha)]-4,7-Bis(dimethylamino)-1,4,4a,5,5a,6,11,12a-octahydro-3,10,12,12a-tetrahydroxy-9-[[(methylamino)acetyl]amino]-1,11-dioxo-2-naphthacenecarboxamide dihydrochloride] | 0.5 | 1 | 32 | 1 | 95 | 98 | 99 | 1 | 0.05 | 0.5 | 0.5 | 8 | 92 | 97 | 99 | 1 | 1 | 1 | 0.5 | 0.5 | Antibacterial activity (MIC) (E. faecalis 12201): 0.25 µg/mL; Antibacterial activity (MIC) (E. coli UBMS 90-5): 1 µg/mL; Antibacterial activity (MIC) (E. coli #311 (MP)): 1 µg/mL; Antibacterial activity (MIC) [12]: 16 µg/mL; Antibacterial activity (MIC) (E. faecalis ATCC 29212): 0.25 µg/mL; Antibacterial activity (MIC) (S. aureus NEMC 8769/89-4): 0.5 µg/mL; Antibacterial activity (MIC) [13]: 16 µg/mL; Antibacterial activity (MIC) (E. coli J2175): 1 µg/mL; Antibacterial activity (MIC) (S. mariescens FDOR 8733): 16 µg/mL; Antibacterial activity (MIC) [14]: 8 µg/mL; Antibacterial activity (MIC) (E. coli BAJ9003): 0.25 µg/mL; Antibacterial activity (MIC) [15]: 16 µg/mL; Antibacterial activity (MIC) (E. coli ATCC 25922): 1 µg/mL; Antibacterial activity (MIC) (S. aureus ROSE (MP)): 32 µg/mL; Antibacterial activity (MIC) [16]: 1 µg/mL; Antibacterial activity (MIC) (E. coli PRP1 TetA): 16 µg/mL; Antibacterial activity (MIC) (E. coli UBMS 88-1 (tetB)): 1 µg/mL |
| CCNCC(=O)Nc1cc(N(C)C)c2c(c1O)C(=O)C1=C(O)[C@]3(O)C(=O)C(C(N)=O)=C(O)[C@@H](N(C)C)C3CC1C2.Cl.Cl (some centres unmarked) [OO] | 1 | 1 | 8 | 1 | 94 | 97 | 99 | 1 | 0.5 | 0.5 | 0.5 | 2 | 87 | 95 | 99 | 1 | 1 | 1 | 1 | 0.5 | Antibacterial activity (MIC) (E. coli UBMS 90-4 (tetM)): 0.5 µg/mL; Antibacterial activity (MIC) (E. faecalis 12201): 0.25 µg/mL; Antibacterial activity (MIC) (E. coli UBMS 90-5): 1 µg/mL; Antibacterial activity (MIC) (E. coli #311 (MP)): 1 µg/mL; Antibacterial activity (MIC) [12]: 8 µg/mL; Antibacterial activity (MIC) (E. faecalis ATCC 29212): 0.25 µg/mL; Antibacterial activity (MIC) (S. aureus NEMC 8769/89-4): 0.5 µg/mL; Antibacterial activity (MIC) [13]: 8 µg/mL; Antibacterial activity (MIC) (E. coli J2175): 1 µg/mL; Antibacterial activity (MIC) (S. mariescens FDOR 8733): 8 µg/mL; Antibacterial activity (MIC) [14]: 2 µg/mL; Antibacterial activity (MIC) (E. coli BAJ9003): 0.12 µg/mL; Antibacterial activity (MIC) [15]: 16 µg/mL; Antibacterial activity (MIC) (E. coli ATCC 25922): 1 µg/mL; Antibacterial activity (MIC) (S. aureus ROSE (MP)): 8 µg/mL; Antibacterial activity (MIC) [16]: 1 µg/mL; Antibacterial activity (MIC) (E. coli PRP1 TetA): 2 µg/mL; Antibacterial activity (MIC) (E. coli UBMS 88-1 (tetB)): 1 µg/mL |
| CN(C)c1cc(NC(=O)CNC2CC2)c(O)c2c1CC1CC3C(N(C)C)C(O)=C(C(N)=O)C(=O)C3(O)C(O)=C1C2=O.Cl.Cl (stereo not drawn) [QQ, [4S-(4alpha,12aalpha))-9[[(Cyclopropylamino)acetyl)amino]-4,7-Bis(dimethylamino)-1,4,4a,5,5a,6,11,12a-octahydro-3,10,12,12a-tetrahydroxy-1,11-dioxo-2-naphthacenecarboxamide dihydrochloride] | 0.5 | 0.5 | 16 | 2 | 92 | 97 | 99 | 1 | 2 | 0.5 | 0.5 | 8 | 85 | 95 | 99 | 2 | 2 | 2 | 0.5 | 0.25 | Antibacterial activity (MIC) (E. coli UBMS 90-4 (tetM)): 2 µg/mL; Antibacterial activity (MIC) (E. faecalis 12201): 0.5 µg/mL; Antibacterial activity (MIC) (E. coli UBMS 90-5): 2 µg/mL; Antibacterial activity (MIC) (E. coli #311 (MP)): 2 µg/mL; Antibacterial activity (MIC) [12]: 4 µg/mL; Antibacterial activity (MIC) (E. faecalis ATCC 29212): 0.25 µg/mL; Antibacterial activity (MIC) (S. aureus NEMC 8769/89-4): 0.12 µg/mL; Antibacterial activity (MIC) [13]: 8 µg/mL; Antibacterial activity (MIC) (E. coli J2175): 2 µg/mL; Antibacterial activity (MIC) (S. mariescens FDOR 8733): > 32 µg/mL; Antibacterial activity (MIC) [14]: 2 µg/mL; Antibacterial activity (MIC) (E. coli BAJ9003): 0.25 µg/mL; Antibacterial activity (MIC) [15]: > 32 µg/mL; Antibacterial activity (MIC) (E. coli ATCC 25922): 2 µg/mL; Antibacterial activity (MIC) (S. aureus ROSE (MP)): 16 µg/mL; Antibacterial activity (MIC) [16]: 0.5 µg/mL; Antibacterial activity (MIC) (E. coli PRP1 TetA): 32 µg/mL; Antibacterial activity (MIC) (E. coli UBMS 88-1 (tetB)): 4 µg/mL |

Reference: patent USRE40086E1, “Method for treating bacterial infection with novel 7-substituted-9-substituted amino 6-demethyl-6-deoxytetracyclines” (Wyeth Holdings Corporation, priority 1991, dated 2008)
